Laboratory results from patent publication US8815857B2 (Boehringer Ingelheim International GmbH, priority 2011, dated 2014).
≈ marks a conversion by molar mass, not a printed value.

What was measured:
[1] = Assessment of solubility: HT solubility in pION buffer, UV spectrophotometry; details: kinetic from dmso stock
[2] = molecular target: T1, human soluble guanylate cyclase alpha 1 and beta 1 subunits (sGC) stably expressed in Chinese hamster ovary cells (Homo sapiens, UniProt Q02108+Q02153); experiment: sGC cellular activator assay: cGMP in CHO cells expressing human sGC, preincubated with ODQ; type: cell-based; details: 40 microM ODQ preincubation, 30 min at room temperature, presence or absence of 50% human serum not given, read-out: EC50 nM, Activity of Compounds in Cellular Assay
T1 construct: expressed in transfected cells; host or cells: Chinese hamster ovary cells, stably transfected
T1 sequence (Q02108 1-690 partner): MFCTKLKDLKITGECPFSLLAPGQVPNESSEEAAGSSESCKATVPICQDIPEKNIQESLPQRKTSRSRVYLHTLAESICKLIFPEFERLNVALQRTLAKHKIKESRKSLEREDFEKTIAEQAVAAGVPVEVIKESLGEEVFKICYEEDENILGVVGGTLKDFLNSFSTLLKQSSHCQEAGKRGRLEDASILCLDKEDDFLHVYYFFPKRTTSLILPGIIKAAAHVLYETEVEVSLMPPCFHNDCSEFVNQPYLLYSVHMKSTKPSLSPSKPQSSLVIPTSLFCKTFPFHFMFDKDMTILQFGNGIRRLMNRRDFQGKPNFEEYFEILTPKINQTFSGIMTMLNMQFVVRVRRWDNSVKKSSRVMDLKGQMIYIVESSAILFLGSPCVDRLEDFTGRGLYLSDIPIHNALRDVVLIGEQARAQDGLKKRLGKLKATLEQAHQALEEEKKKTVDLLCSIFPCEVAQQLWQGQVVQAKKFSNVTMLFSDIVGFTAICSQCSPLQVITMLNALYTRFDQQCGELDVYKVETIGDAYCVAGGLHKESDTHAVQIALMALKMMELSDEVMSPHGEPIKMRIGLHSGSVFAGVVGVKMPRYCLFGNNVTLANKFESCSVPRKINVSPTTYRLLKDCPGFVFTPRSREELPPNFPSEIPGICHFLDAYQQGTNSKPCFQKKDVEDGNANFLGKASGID
T1 sequence (Q02153 1-619): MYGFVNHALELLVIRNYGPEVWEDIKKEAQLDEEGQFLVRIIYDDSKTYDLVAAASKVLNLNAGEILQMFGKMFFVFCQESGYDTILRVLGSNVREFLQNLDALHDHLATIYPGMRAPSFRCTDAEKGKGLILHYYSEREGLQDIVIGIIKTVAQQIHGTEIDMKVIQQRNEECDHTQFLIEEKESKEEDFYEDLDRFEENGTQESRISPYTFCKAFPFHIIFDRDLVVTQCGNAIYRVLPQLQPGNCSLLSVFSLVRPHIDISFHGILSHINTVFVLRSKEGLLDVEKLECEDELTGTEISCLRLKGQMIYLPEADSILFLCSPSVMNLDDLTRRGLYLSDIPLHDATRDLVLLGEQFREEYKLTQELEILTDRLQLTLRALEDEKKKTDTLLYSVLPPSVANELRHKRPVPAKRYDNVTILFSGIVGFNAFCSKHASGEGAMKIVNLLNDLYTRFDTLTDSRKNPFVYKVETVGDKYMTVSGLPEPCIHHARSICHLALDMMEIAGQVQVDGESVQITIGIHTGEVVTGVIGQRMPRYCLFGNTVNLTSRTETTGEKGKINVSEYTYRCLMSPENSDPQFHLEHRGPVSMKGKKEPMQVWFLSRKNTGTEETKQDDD
Method: The sGC cellular activator assay is performed in the presence and absence of 50% human serum (HS) using Chinese hamster ovary cells that have been stably transfected to express the human soluble guanylate cyclase alpha 1 and beta 1 subunits (sGC). Cells are preincubated with 40 microM 1H-[1,2,4]oxadiazolo[4,3-a]quinoxalin-1-one (ODQ), an sGC inhibitor, for one hour in buffer containing 0.1% bovine serum albumin and 3-isobutyl-1-methylxanthine (IBMX). Concentration response curves are prepared for test compounds in DMSO. An intermediate dilution of the compounds is performed in either buffer containing IBMX or type AB HS containing IBMX. Diluted compounds are added to cells and they are incubated at room temperature for thirty minutes. cGMP is measured using a CisBio homogeneous time resolved fluorescence kit and the EC50 is calculated for each compound.

[3] = pH 6.8, aqueous buffer, Solubility (pH 6.8), pH 6.8
[4] = pION system solution buffer, pH 4.5, pH 4.5, aqueous buffer, Solubility (pH 4.5), pH 4.5 buffer, 16-19 h incubation, 1.0% DMSO

Row | solubility [1, 3] | solubility [1, 4] | solubility ([1]; pION system solution buffer, pH 7.4, pH 7.4, aqueous buffer, Solubility (pH 7.4), pH 7.4 buffer, 16-19 h incubation, 1.0% DMSO) | EC50 [2] | Structure (SMILES)
1 | 0.6 µg/mL (≈ 1.09 µM) | 47 µg/mL (≈ 85.5 µM) |  | 310 nM | Cc1ccc(OCc2ccc(CN3CCOCC3)cc2C)c(-c2csc(N3CCCC(C)(C(=O)O)CC3)n2)c1 (stereo not shown) [Compound 233]
2 | 72 µg/mL (≈ 134 µM) | 9.2 µg/mL (≈ 17.2 µM) |  | 41 nM | Cc1ccc(OCc2ccc(C(=O)N3CCOCC3)cc2C)c(-c2csc(N3CC[C@@H](C(=O)O)[C@H]3C)n2)c1 [Compound 241]
3 | 37 µg/mL (≈ 70.9 µM) | 53 µg/mL (≈ 102 µM) |  | 90 nM | Cc1ccc(OCc2ccc(CN3CCOCC3)cc2C)c(-c2csc(N3CC[C@@H](C(=O)O)[C@H]3C)n2)c1 [Compound 242]
4 | 65 µg/mL (≈ 114 µM) | 2.6 µg/mL (≈ 4.58 µM) |  | 180 nM | Cc1ccc(OCc2ccc(CN3CCS(=O)(=O)CC3)cc2C)c(-c2csc(N3C[C@@H]4[C@H](C3)[C@@H]4C(=O)O)n2)c1 [Compound 244]
5 | 48 µg/mL (≈ 84.2 µM) | 3.6 µg/mL (≈ 6.32 µM) |  | 290 nM | Cc1ccc(OCc2ccc(CN3CCS(=O)(=O)CC3)cc2C)c(-c2csc(N3CC[C@@H](C(=O)O)[C@H]3C)n2)c1 [Compound 245]
6 | 54 µg/mL (≈ 104 µM) | 62 µg/mL (≈ 119 µM) |  | 340 nM | Cc1ccc(OCc2ccc(CN3CCOCC3)cc2C)c(-c2csc(N3C[C@@H]4[C@H](C3)[C@@H]4C(=O)O)n2)c1 [Compound 246]
7 | 70 µg/mL (≈ 131 µM) | 46 µg/mL (≈ 86.2 µM) |  | 720 nM | Cc1ccc(OCc2ccc(C(=O)N3CCOCC3)cc2C)c(-c2csc(N3C[C@@H]4[C@H](C3)[C@@H]4C(=O)O)n2)c1 [Compound 247]
8 | 47 µg/mL (≈ 88.4 µM) | < 0.1 µg/mL |  | 110 nM | Cc1ccc(OCc2ccc(C(=O)N3CCCCC3)cc2C)c(-c2csc(N3CC4(CC4C(=O)O)C3)n2)c1 (stereo not shown) [Compound 248]
9 | 0.2 µg/mL (≈ 0.352 µM) | < 0.1 µg/mL |  | 260 nM | Cc1ccc(OCc2ccc(CN3CCS(=O)(=O)CC3)cc2C)c(-c2csc(N3CC4(CC4C(=O)O)C3)n2)c1 (stereo not shown) [Compound 252]
10 | 0.29 µg/mL (≈ 0.522 µM) | 0.5 µg/mL (≈ 0.9 µM) |  | 380 nM | Cc1ccc(OCc2ccc(CN3CCS(=O)(=O)CC3)cc2C)c(-c2csc(N3CC(CC(=O)O)C3)n2)c1 [Compound 253]
11 | 51 µg/mL (≈ 100 µM) | 40 µg/mL (≈ 78.8 µM) |  | 450 nM | Cc1ccc(OCc2ccc(CN3CCOCC3)cc2C)c(-c2csc(N3CC(CC(=O)O)C3)n2)c1 [Compound 254]
12 | 82 µg/mL (≈ 154 µM) | 0.69 µg/mL (≈ 1.29 µM) |  | 500 nM | Cc1ccc(OCc2ccc(C(=O)N3CCOCC3)cc2C)c(-c2csc(N3CC4(CC4C(=O)O)C3)n2)c1 (stereo not shown) [Compound 256]
13 | 45 µg/mL (≈ 86.6 µM) | 56 µg/mL (≈ 108 µM) |  | 540 nM | Cc1ccc(OCc2ccc(CN3CCOCC3)cc2C)c(-c2csc(N3CC4(CC4C(=O)O)C3)n2)c1 (stereo not shown) [Compound 257]
14 | 19 µg/mL (≈ 32.7 µM) | < 0.1 µg/mL |  | 580 nM | Cc1ccc(OCc2ccc(CN3CCS(=O)(=O)CC3)cc2C)c(-c2csc(N3CC(C4(C(=O)O)CC4)C3)n2)c1 [Compound 259]
15 | 6.4 µg/mL (≈ 12 µM) | 17 µg/mL (≈ 31.9 µM) |  | 710 nM | Cc1ccc(OCc2ccc(CN3CCOCC3)cc2C)c(-c2csc(N3CC(C4(C(=O)O)CC4)C3)n2)c1 [Compound 261]
16 | 12 µg/mL (≈ 21.5 µM) | 21 µg/mL (≈ 37.6 µM) |  | 21 nM | Cc1ccc(OCc2ccc(CN3CCOCC3)cc2C#N)c(-c2csc(N3C[C@H]4CC[C@@H](C3)[C@H]4C(=O)O)n2)c1 [Compound 264]

The remaining lines, values behind:

Row | Structure (SMILES) | solubility [1, 3] | solubility [1, 4] | solubility ([1]; pION system solution buffer, pH 7.4, pH 7.4, aqueous buffer, Solubility (pH 7.4), pH 7.4 buffer, 16-19 h incubation, 1.0% DMSO) | EC50 [2]
17 | Cc1ccc(OCc2ccc(CN3C[C@@H]4C[C@H]3CO4)cc2C#N)c(-c2csc(N3C[C@H]4CC[C@@H](C3)[C@H]4C(=O)O)n2)c1 [Compound 232] | 26 µg/mL (≈ 45.6 µM) | 46 µg/mL (≈ 80.6 µM) | > 54 µg/mL | 44 nM
18 | Cc1ccc(OCc2ccc(CN3CCOC(C)C3)cc2C#N)c(-c2csc(N3C[C@H]4CC[C@@H](C3)[C@H]4C(=O)O)n2)c1 (stereo partly shown) [Compound 238] | 5.2 µg/mL (≈ 9.08 µM) | 4.9 µg/mL (≈ 8.56 µM) |  | 39 nM
19 | Cc1ccc(OCc2ccc(C(=O)N3CCCCC3)cc2C)c(-c2csc(N3C[C@@H]4[C@H](C3)[C@@H]4C(=O)O)n2)c1 [Compound 243] | 61 µg/mL (≈ 115 µM) | 1.2 µg/mL (≈ 2.26 µM) |  | 180 nM
20 | Cc1ccc(OCc2ccc(CN3CCN(C(=O)C4CC4)CC3)cc2C)c(-c2csc(N3CC(CC(=O)O)C3)n2)c1 [Compound 249] | 51 µg/mL (≈ 88.7 µM) | 45 µg/mL (≈ 78.3 µM) |  | 140 nM
21 | CC[C@]1(C(=O)O)[C@@H]2CC[C@H]1CN(c1nc(-c3cc(C)ccc3OCc3ccc(C(=O)N4CCCCC4)cc3C)cs1)C2 [Compound 250, 8-ethyl-3-(4-{5-methyl-2-[2-methyl-4-(piperidine-1-carbonyl)-benzyloxy]-phenyl}-thiazole-2-yl)-3-aza-bicyclo[3.2.1]octane-8(syn)-carboxylic acid] | 13 µg/mL (≈ 22.1 µM) | < 0.1 µg/mL |  | 140 nM
22 | Cc1ccc(OCc2ccc(C(=O)N3CCCCC3)cc2C)c(-c2csc(N3CC(CC(=O)O)C3)n2)c1 [Compound 251] | 56 µg/mL (≈ 108 µM) | 0.15 µg/mL (≈ 0.289 µM) |  | 240 nM
23 | Cc1ccc(OCc2ccc(CN3CCN(C(=O)C4CC4)CC3)cc2C)c(-c2csc(N3CC(C4(C(=O)O)CC4)C3)n2)c1 [Compound 255] | 0.94 µg/mL (≈ 1.56 µM) | 6 µg/mL (≈ 9.99 µM) |  | 480 nM
24 | COC[C@]1(C(=O)O)[C@@H]2CC[C@H]1CN(c1nc(-c3cc(C)ccc3OCc3ccc(C(=O)N4CCCCC4)cc3C)cs1)C2 [Compound 258] | 8.2 µg/mL (≈ 13.6 µM) | < 0.1 µg/mL |  | 550 nM
25 | Cc1ccc(OCc2ccc(C(=O)N3CCCCC3)cc2C)c(-c2csc(N3CC(C4(C(=O)O)CC4)C3)n2)c1 [Compound 260] | 14 µg/mL (≈ 25.7 µM) | < 0.1 µg/mL |  | 590 nM
26 | CCCC1(C(=O)O)C2CCC1CN(c1nc(-c3cc(C)ccc3OCc3ccc(C(=O)N4CCCCC4)cc3C)cs1)C2 (stereo not shown) [Compound 262] | 12 µg/mL (≈ 19.9 µM) | < 0.1 µg/mL |  | 980 nM
27 | Cc1ccc(OCc2ccc(C(=O)N3CCCCC3)cc2C#N)c(-c2csc(N3C[C@H]4CC[C@@H](C3)[C@H]4C(=O)O)n2)c1 [Compound 263] | 58 µg/mL (≈ 102 µM) | 0.3 µg/mL (≈ 0.526 µM) |  | 13 nM
28 | Cc1ccc(OCc2ccc(CN3CCN(C(=O)C4CC4)CC3)cc2C#N)c(-c2csc(N3C[C@H]4CC[C@@H](C3)[C@H]4C(=O)O)n2)c1 [Compound 265] | 1.9 µg/mL (≈ 3.04 µM) | 0.79 µg/mL (≈ 1.26 µM) |  | 42 nM
29 | Cc1ccc(OCc2ccc(C(=O)N3CCOCC3)cc2C#N)c(-c2csc(N3C[C@H]4CC[C@@H](C3)[C@H]4C(=O)O)n2)c1 [Compound 266, 3-(4-{2-[2-cyano-4-(morpholine-4-carbonyl)-benzyloxy]-5-methyl-phenyl}-thiazole-2-yl)-3-aza-bicyclo[3.2.1]octane-8(syn)-carboxylic acid] | 70 µg/mL (≈ 122 µM) | 0.48 µg/mL (≈ 0.838 µM) |  | 42 nM
30 | Cc1ccc(OCc2ccc(CN3CCS(=O)(=O)CC3)cc2C#N)c(-c2csc(N3C[C@H]4CC[C@@H](C3)[C@H]4C(=O)O)n2)c1 [Compound 267] | 13 µg/mL (≈ 21.4 µM) | < 0.1 µg/mL |  | 44 nM
